Measurements as given in patent US6750058B1, “Transfecting peptide vector, composition containing same and applications” (Commissariat a l'Energie Atomique, priority 1997, dated 2004).

Columns and labels:
HeLa cells = assay: Transfection of HeLa cells with luciferase plasmid pGL3, light emission in cell lysates; assay type: cell-based; conditions: for RLU (luciferase light emission): DNA 1.5 μg; for transfection (in words): summary of Table II
Description: The HeLa cells are cultured at 37° C. in an EMEM medium supplemented with 10% foetal calf serum under an atmosphere containing 5% CO2.
1.5 to 12 μg of peptide I in 50 μl of dilution buffer (20 mM Tris, pH 7.4, 150 mM NaCl) are incubated with 1.5 μg of plasmid pGL3 in 250 μl of EMEM medium for 15 to 30 min at room temperature.
The mixture of DOTAP or of DOSPER with 1.5 μg of plasmid pGL3 is prepared according to the manufacturer's instructions (Boehringer). For the studies of the effect of the peptide on transfection in the presence of liposomes, portions of peptides are mixed with DOTAP or DOSPER in the dilution buffer defined above for 15 to 30 min at room temperature, and then 1.5 μg of plasmid pGL3 are added and incubated for 15 min at room temperature.
The transfections are carried out in plates comprising 24 wells (Beckton Dickinson) with 1.5×10^5 cells/well (confluence of about 50%) for 1 h at 37° C. After 24 h, the light emission is measured in the cell lysates with the Promega Luciferase Assay System test.

Human erythrocytes = assay: Haemolytic test; assay type: cell-based; conditions: 6 μg of peptide I, 10^6 erythrocytes, 37° C.
Description: Human erythrocytes are washed 3 times with PBS buffer. 10^6 erythrocytes are incubated with 6 μg of peptide I for various periods of time at 37° C. After centrifugation at 10,000 g for 5 min, the optical density of the supernatant is measured at 540 nm.

Row | Molecule | RLU (luciferase light emission) (HeLa cells; Table II, peptide 9 μg) | RLU (luciferase light emission) (HeLa cells; Table II, peptide 12 μg) | RLU (luciferase light emission) (HeLa cells; Table II, peptide 3-12 μg) | transfection (in words) (HeLa cells) | other results
1 | A K R A R L S T S E D E S-K10 (AKRARLSTSEDESKKKKKKKKKK) [Peptide IE] | 110 RLU/10 s/10^5 cells × 10^3 | 330 RLU/10 s/10^5 cells × 10^3 | – | – | RLU (luciferase light emission) (HeLa cells; Table II, peptide 3 μg): 1 RLU/10 s/10^5 cells × 10^3; RLU (luciferase light emission) (HeLa cells; Table II, peptide 6 μg): 10 RLU/10 s/10^5 cells × 10^3; times less efficient than peptide IC (HeLa cells; transfection efficiency, Table II): approximately 30 times
2 | CC(C)C[C@H](NC(=O)[C@H](CCCNC(=N)N)NC(=O)[C@H](C)NC(=O)[C@H](CCCNC(=N)N)NC(=O)[C@H](CCCCN)NC(=O)[C@H](C)N)C(=O)N[C@@H](CO)C(=O)N[C@H](C(=O)N[C@@H](CO)C(=O)N[C@@H](Cc1ccccc1)C(=O)N[C@@H](CC(N)=O)C(=O)N1CCC[C@H]1C(=O)N[C@H](C(=O)N[C@@H](Cc1ccc(O)cc1)C(=O)N1CCC[C@H]1C(=O)N[C@@H](Cc1ccc(O)cc1)C(=O)N[C@@H](CCC(=O)O)C(=O)N[C@@H](CC(=O)O)C(=O)N[C@@H](CCC(=O)O)C(=O)N[C@@H](CO)C(=O)N[C@@H](CCCCN)C(=O)N[C@@H](CCCCN)C(=O)N[C@@H](CCCCN)C(=O)N[C@@H](CCCCN)C(=O)N[C@@H](CCCCN)C(=O)N[C@@H](CCCCN)C(=O)N[C@@H](CCCCN)C(=O)N[C@@H](CCCCN)C(=O)N[C@@H](CCCCN)C(=O)N[C@@H](CCCCN)C(=O)N[C@@H](CCCCN)C(=O)N[C@@H](CCCCN)C(=O)N[C@@H](CCCCN)C(=O)N[C@@H](CCCCN)C(=O)N[C@@H](CCCCN)C(=O)N[C@@H](CCCCN)C(=O)N[C@@H](CCCCN)C(=O)N[C@@H](CCCCN)C(=O)N[C@@H](CCCCN)C(=O)N[C@@H](CCCCN)C(=O)O)C(C)C)[C@@H](C)O [Peptide I, AKRARLSTSFNPVYPYEDES - K20] | – | – | – | – | haemolytic test result (Human erythrocytes): negative results
3 | L S T S F N P V Y P Y E D E S-K20 [Peptide ID] | – | – | 1 RLU/10 s/10^5 cells × 10^3 | no transfection | attaching and condensing the DNA and entering into the cell (HeLa cells): still capable of attaching and condensing the DNA and of entering into the cell; transport of the DNA into the nucleus (HeLa cells): incapable of transporting this DNA into the nucleus
4 | AKRARLSTSFNPVYPYEDES - K10 [Peptide IC] | 2870 RLU/10 s/10^5 cells × 10^3 | 1330 RLU/10 s/10^5 cells × 10^3 | – | – | RLU (luciferase light emission) (HeLa cells; Table II, peptide 3.6 μg): 1 RLU/10 s/10^5 cells × 10^3; effect of reduced number of lysines in the polylysine polymer on transfection efficiency (HeLa cells; can be compensated for by increasing the quantity of peptide): modest negative effect
5 | AKRARLSTSFNPVYPYEDES [Peptide IA] | – | – | 1 RLU/10 s/10^5 cells × 10^3 | no transfection | –
